Measurements reported in patent US10653695B2, “Pharmaceutical formulations of neflamapimod” (EIP Pharma, LLC, priority 2018, dated 2020).

How the values were obtained:
[1] = Dissolution testing (USP <711>, Apparatus 2) of neflamapimod capsules and blends, including on stability; type: physicochemical; conditions: powder-in-capsule vs capsules stored at 40° C./75% RH; FIG. 1
Excerpt: USP Dissolution Acceptance Criteria. Dissolution testing of a drug product is a method for evaluating physiological availability that depends upon having the drug in a dissolved state. The United States Pharmacopoeia (“USP”) dissolution testing <USP 711> involves three stages with the acceptance criteria defined for each stage as a function of a quantity Q, a percentage of the label value that is established for each drug product.
Dissolution testing data described herein are generated according to the specifications shown below in Table 3 and using the procedure set forth by the United States Pharmacopeial Convention in USP <711>.
Determined by the procedure set forth in Example 1.1.

[2] = cited from earlier work

**Q.** Which “Dissolution compared to the aged capsules” value [1] does the source give for `O=c1ncn2nc(Sc3ccc(F)cc3F)ccc2c1-c1c(Cl)cccc1Cl` [Neflamapimod] here?
**A.** better dissolution

**Q.** And the Solubility in water [2]?
**A.** very low
